Experimental data reported in PubChem BioAssay (NCI).
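Compound exposure: 48 hours, 5 concentrations, 96-well plates. TGI marks complete inhibition of growth.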

Legend:
Assay in all cases: growth of human tumour cells (NCI), 48 h
786-0 renal = system: 786-0 renal
A498 renal = system: A498 renal
A549 NSCLC = system: A549 NSCLC
ACHN renal = system: ACHN renal
BT-549 breast = system: BT-549 breast
CAKI-1 renal = system: CAKI-1 renal
CCRF-CEM leukemia = system: CCRF-CEM leukemia
COLO 205 colon = system: COLO 205 colon
DU-145 prostate = system: DU-145 prostate
EKVX NSCLC = system: EKVX NSCLC
HCC-2998 colon = system: HCC-2998 colon
HCT-116 colon = system: HCT-116 colon
HCT-15 colon = system: HCT-15 colon
HL-60(TB) leukemia = system: HL-60(TB) leukemia
HOP-62 NSCLC = system: HOP-62 NSCLC
HS 578T breast = system: HS 578T breast
HT29 colon = system: HT29 colon
IGROV1 ovarian = system: IGROV1 ovarian
K-562 leukemia = system: K-562 leukemia
KM12 colon = system: KM12 colon
LOX IMVI melanoma = system: LOX IMVI melanoma
M14 melanoma = system: M14 melanoma
MALME-3M melanoma = system: MALME-3M melanoma
MCF7 breast = system: MCF7 breast
MDA-MB-231 breast = system: MDA-MB-231 breast
MDA-MB-435 = system: MDA-MB-435
MDA-N = system: MDA-N
MOLT-4 leukemia = system: MOLT-4 leukemia
NCI-H226 lung = system: NCI-H226 lung
NCI-H23 lung = system: NCI-H23 lung
NCI-H460 lung = system: NCI-H460 lung
NCI-H522 lung = system: NCI-H522 lung
NCI/ADR-RES ovarian = system: NCI/ADR-RES ovarian
OVCAR-3 ovarian = system: OVCAR-3 ovarian
OVCAR-4 ovarian = system: OVCAR-4 ovarian
OVCAR-5 ovarian = system: OVCAR-5 ovarian
OVCAR-8 ovarian = system: OVCAR-8 ovarian
PC-3 prostate = system: PC-3 prostate
RPMI-8226 leukemia = system: RPMI-8226 leukemia
SF-268 CNS = system: SF-268 CNS
SF-295 CNS = system: SF-295 CNS
SF-539 CNS = system: SF-539 CNS
SK-MEL-2 melanoma = system: SK-MEL-2 melanoma
SK-MEL-28 melanoma = system: SK-MEL-28 melanoma
SK-MEL-5 melanoma = system: SK-MEL-5 melanoma
SK-OV-3 ovarian = system: SK-OV-3 ovarian
SN12C renal = system: SN12C renal
SNB-19 CNS = system: SNB-19 CNS
SNB-75 CNS = system: SNB-75 CNS
SR leukemia = system: SR leukemia
SW-620 colon = system: SW-620 colon
T-47D breast = system: T-47D breast
TK-10 renal = system: TK-10 renal
U251 CNS = system: U251 CNS
UACC-257 melanoma = system: UACC-257 melanoma
UACC-62 melanoma = system: UACC-62 melanoma
UO-31 renal = system: UO-31 renal
HOP-92 NSCLC = system: HOP-92 NSCLC
RXF 393 renal = system: RXF 393 renal

Measured: TGI

O/N=C\c1c2c(cc3c1CCC3)CCC2
> 100 µM: 786-0 renal | A498 renal | A549 NSCLC | ACHN renal | BT-549 breast | CAKI-1 renal | CCRF-CEM leukemia | COLO 205 colon | DU-145 prostate | EKVX NSCLC | HCC-2998 colon | HCT-116 colon | HCT-15 colon | HL-60(TB) leukemia | HOP-62 NSCLC | HS 578T breast | HT29 colon | IGROV1 ovarian | K-562 leukemia | KM12 colon | LOX IMVI melanoma | M14 melanoma | MALME-3M melanoma | MCF7 breast | MDA-MB-231 breast | MDA-MB-435 | MDA-N | MOLT-4 leukemia | NCI-H226 lung | NCI-H23 lung | NCI-H460 lung | NCI-H522 lung | NCI/ADR-RES ovarian | OVCAR-3 ovarian | OVCAR-4 ovarian | OVCAR-5 ovarian | OVCAR-8 ovarian | PC-3 prostate | RPMI-8226 leukemia | SF-268 CNS | SF-295 CNS | SF-539 CNS | SK-MEL-2 melanoma | SK-MEL-28 melanoma | SK-MEL-5 melanoma | SK-OV-3 ovarian | SN12C renal | SNB-19 CNS | SNB-75 CNS | SR leukemia | SW-620 colon | T-47D breast | TK-10 renal | U251 CNS | UACC-257 melanoma | UACC-62 melanoma | UO-31 renal

CCOC(=O)[C@@]12C[C@](/C=C/OC)(O[Si](C)(C)C)[C@@]13c1cc(OC)c(OC)cc1CCN3C(=O)C2=O
> 100 µM: 786-0 renal | A498 renal | A549 NSCLC | ACHN renal | BT-549 breast | CAKI-1 renal | CCRF-CEM leukemia | COLO 205 colon | DU-145 prostate | EKVX NSCLC | HCT-116 colon | HCT-15 colon | HOP-62 NSCLC | HOP-92 NSCLC | HS 578T breast | HT29 colon | IGROV1 ovarian | K-562 leukemia | KM12 colon | LOX IMVI melanoma | M14 melanoma | MALME-3M melanoma | MCF7 breast | MDA-MB-231 breast | MDA-MB-435 | MDA-N | MOLT-4 leukemia | NCI-H226 lung | NCI-H23 lung | NCI-H460 lung | NCI/ADR-RES ovarian | OVCAR-3 ovarian | OVCAR-4 ovarian | OVCAR-5 ovarian | OVCAR-8 ovarian | PC-3 prostate | RPMI-8226 leukemia | RXF 393 renal | SF-268 CNS | SF-295 CNS | SF-539 CNS | SK-MEL-2 melanoma | SK-MEL-28 melanoma | SK-MEL-5 melanoma | SK-OV-3 ovarian | SN12C renal | SNB-19 CNS | SNB-75 CNS | SR leukemia | SW-620 colon | T-47D breast | TK-10 renal | U251 CNS | UACC-257 melanoma | UACC-62 melanoma | UO-31 renal
